Test results reported in patent US11992011B2, “Compounds for controlling plant pathogens” (VIB VZW, priority 2017, dated 2024).

Key:
[1] = system: J2 juveniles of Heterodera schachtii; assay: In vitro nematode toxicity assay, H. schachtii J2 (Example 11); settings: PA 100 μM, Vertimec 0.02 v/v % abamectin, control 83.1±7.6
Description: J2 juveniles of Meloidogyne graminicola and Heterodera schachtii were isolated from Echinocloa cruss-galli roots and sugar beet roots respectively. Per treatment and species combination, 300 nematodes were isolated and divided over six wells that contained 1.5 ml of either sterilized tap water, a 100 μM C4H inhibitor solution or a 0.02 v/v % solution of the nematicide abamectin (Vertimec®, Syngenta AG). The nematodes were incubated in the dark on a slow-moving rotary shaker (50 rpm) and the number of living nematodes was counted regularly using a binocular microscope.
To rule out definitively that the compounds of the invention operate through direct toxicity to nematodes, an in vitro toxicity assay on J2 juveniles of the nematodes Meloidogyne graminicola and Heterodera schachtii was performed.
First, survival upon exposure to the C4H inhibitor piperonylic acid (PA) was compared to a negative control (tap water) and a positive control, the commercial nematicide Vertimec (0.02% Abamectin). A detailed survival curve is shown in FIG. 12a (M. graminicola) and FIG. 12b (H. schachtii).

[2] = system: Pythium splendens; assay: Pythium splendens in green bean with PA seed coating (Example 22); format: in vivo
Description: FIG. 25: (a) effect of a 500 μM piperonylic acid coating compared to a mock coating on germination in soil with or without Pythium splendens (PA: piperonylic acid coating, no Pythium; CON: mock coating, no Pythium; PA+Ps: piperonylic acid coating, Pythium splendens; CON+Ps: mock coating, Pythium splendens); N=45. (b) plant health score of emerged seedlings fourteen days after the start of the experiment. Scores: 0=seedling died after emergence; 1=seedling alive but stunted; 2=seedling healthy. (c) primary root length fourteen days after the start of the experiment, with bars indicating means and error bars standard deviation.

[3] = system: tobacco cell cultures (Nicotinium tabacum BY2); settings: Schoch et al., 2002; cited from earlier work
[4] = system: Meloidogyne incognita; assay: Meloidogyne incognita infection in tomato cv. Moneymaker (Example 7); format: in vivo
Description: Tomato seeds, cv. Moneymaker (Vreeken's Zaden, Dordrecht, the Netherlands) were sown on autoclaved potting soil coveed with polyethylene film and placed at 24° C. for eight days. Seedlings were then transferred to individual SAP-filled pots and placed in a growth chamber at 24° C. Plants were watered three times per week with 25 ml of quarter-strength Hoagland solution for the first two weeks and half-strength thereafter.
M. incognita was extracted from infected tomato plants (cv. Moneymaker) roots grown in potting soil at 24° C. Nematodes were collected, counted and inoculated using the same procedure described for M. graminicola above.
(§1) Unless otherwise mentioned, all chemicals for nematode experiments were applied as a foliar spray consisting of the target compound at a concentration of 300 μM together with 0.1% (v/v) Tween 20 surfactant (Calbiochem) in distilled water. Again unless otherwise mentioned, all treatments for the nematode experiments were carried out three times: one and eight days before pathogen inoculation and seven days after pathogen inoculation. In all cases, plants were sprayed until run-off with an atomizer.
Infection experiments with M. incognita were performed in the same manner as those with M. graminicola, except that plants were harvested 31 days after inoculation instead of 14 days. At this point, the plants were phenotyped by measuring the root length with a ruler and in some experiments by measuring leaf area using the EasyLeafArea software (Easlon and Bloom, 2014) and by determining shoot dry mass after 72 hours of drying in an oven at 70° C. Galls were stained and counted as described above.
Additionally, a possible dose response effect was investigated by applying PA at three concentrations: 100, 400 and 700 μM.

[5] = system: Meloidogyne graminicola; assay: Meloidogyne graminicola infection in rice cv. Kitaake, additional C4H inhibitors (Example 6); format: in vivo; settings: foliar spray, N=8
Description: as §1
Infection experiments with M. graminicola were performed by inoculating host plants 14 days after transfer to SAP by introducing the desired amount of J2 juveniles next to the root system using a micro pipette. Rice plants (cv. Nipponbare or Kitaake) were inoculated with 250 J2 juveniles per plant; wheat plants (cv. Sahara) were inoculated with 600 J2 juveniles per plant. Plants were harvested 14 days after inoculation. At this point, the plants were phenotyped by measuring the shoot and root length with a ruler, counting the number of adventitious roots and in some experiments by measuring leaf area using the EasyLeafArea software (Easlon and Bloom, 2014) and by determining shoot dry mass after 72 hours of drying in an oven at 70° C. Root systems were then stained in acid fuchsine as described in (Byrd et al., 1983) and left to destain in glycerol with 1 ml/l fuming HCl added for approximately ten days. The number of galls and nematodes was then counted using a binocular microscope.
Four different C4H inhibitors were used: piperonylic acid (PA), piperine (PIP), 4-propynyloxybenzoic acid (4PB) and 3-(4-pyridyl)acrylic acid (3PA).

[6] = system: OsGNS5; assay: qRT-PCR in rice roots, OsGNS5 (Example 20); format: in vivo, Oryza sativa; settings: rice cv. Bomba root tissue; same samples as Example 19
Description: After quality control, qPCR was carried out.
To test whether other defense hormones might be involved, genes responsive to jasmonic acid (the biosynthesis gene OsAOS2) and auxin (the auxin conjugating enzyme OsGH3.1) were investigated. Moreover, the callose-degrading enzyme OsGNS5, downregulation of which is associated with basal defense, was also investigated. The qRT-PCR analysis was performed on the same samples used in the previous Example.

[7] = system: Pseudomonas syringae DC3000; assay: Pseudomonas syringae toxicity experiment in liquid culture (Example 21); format: cell-based; settings: 100 μM, twenty-four hours of continuous exposure
Description: A glycerol stock of P. syringae pv. DC3000 kept at−80° C. was spotted on petri dishes containing King's B agar amended with 75 μg/ml rifampicine (Duchefa Biochemie, Haarlem, the Netherlands). The plates were incubated in the dark at 28° C. for one week. At this time point, glass test tubes containing 5 ml of liquid King's B each (without rifampicin) were inoculated with cells from the plates and placed on an orbital shaker at 200 rpm for 24 hours at 28° C. 100 μl of this liquid inoculum was transferred to fresh glass test tubes containing 5 ml of liquid King's B each (without rifampicin) amended either with 100 μM of PA or a corresponding control, which were placed on an orbital shaker at 200 rpm for 24 hours at 28° C. At this time point, the cells were diluted ten-fold with liquid King's B medium and the OD600 of the resulting suspension was determined using a spectrophotometer (BioRad SmartSpec Plus), with sterile King's B as a blanc.
Prior to inoculation, the effect of piperonylic acid on Pseudomonas syringae DC3000 itself was also verified by growing the bacteria on liquid culture amended with piperonylic acid or a corresponding control and measuring the OD600 (as described in the materials and methods section).

[8] = system: spring wheat (Triticum aestivum cv. Fielder); assay: Yield and fertility in pathogen-free spring wheat (Example 2); settings: 300 μM foliar spray three times; vs. control
Description: For Example 2, the spring wheat cultivar Fielder was used. Seeds were obtained from plants grown in the greenhouse complex of the VIB (Zwijnaarde, Belgium). Seeds were sown directly in potting soil (four seeds to a pot, thinned to three plants per pot after emergence) and placed in a growth chamber at 21° C. with 16 hours per day of light. These plants were grown until harvest; they were sprayed three times with the compounds of the invention at a concentration of 300 μM using the protocol described in the chemicals section. Spraying took place 14 and 21 days after emergence and a final time at heading.
In all cases model assumptions were verified using diagnostic plots (residuals, QQ-plot, scale-location and residuals-leverage). Outliers were removed only if they were outliers both in the statistical sense and if there was a biological reason for removal (e.g. the plant was stunted or developed a secondary infection).
To determine the effects of C4H inhibition on yield and fertility, spring wheat (Triticum aestivum cv. Fielder) was grown in a pathogen-free growth chamber until maturity and treated with a control or C4H inhibitor-containing foliar spray at regular intervals. At harvest, the number of ears per plant, the seed mass, the size of the seeds and the germination ability of the freshly harvested seeds were measured. Seed size was measured using the stacking density of the seed as a proxy measure; if a given seed mass takes up a greater volume, then the individual seeds must be larger.

O=C(O)c1ccc2c(c1)OCO2 [PA, Piperonylic acid]
survival after 24 hours of exposure [1]: 92.8±2.5% | emergence in soil containing P. splendens ([2]; 500 μM PA seed coating vs mock coating): did not improve emergence | seedling health after emergence ([2]; 500 μM PA seed coating vs mock coating, fourteen days): significantly improved | primary root length in P. splendens-infested soil vs control-coated seeds ([2]; 500 μM PA seed coating, fourteen days): longer | accumulation of salicylic acid [3]: induces the accumulation of the defense hormone salicylic acid | negative effects on growth or development of the tomato plants ([4]; 100, 400 and 700 μM foliar spray): no negative effects on growth or development | Percent difference of mean number of galls per root system, PA100 vs. PA400 ([4]; tomato, 100 μM compared with 400 μM): −9% | Percent difference of mean number of galls per root system, PA100 vs. PA700 ([4]; tomato, 100 μM compared with 700 μM): −2% | Percent difference of mean number of galls per root system, PA400 vs. PA700 ([4]; tomato, 400 μM compared with 700 μM): +11% | Percent difference of mean number of galls per root system, PA100 vs. CON ([4]; tomato, foliar spray 100 μM): −54% | Percent difference of mean number of galls per root system, PA400 vs. CON ([4]; tomato, foliar spray 400 μM): −50% | Percent difference of mean number of galls per root system, PA700 vs. CON ([4]; tomato, foliar spray 700 μM): −55% | reduction in the number of galls compared to the control group [5]: −40% | Fold change vs. control, OsGNS5 expression [6]: 0.41 | effect on bacterial growth [7]: no effect on bacterial growth | OD600 ([7]; ten-fold diluted culture, printed 0.737 vs. 0.757): 0.737 | Total yield (seed mass) [8]: not significantly different | germination after fourteen days of freshly harvested seeds [8]: not significantly different | mean number of ears per plant [8]: the same in all treatments | seed size (stacking density) [8]: no effect
